Laboratory results as given in US7166579B2, “Prodrugs of DP IV-inhibitors” (Prosidion Limited, priority 1998, dated 2007).
Where a name gives a salt, the structure may show the parent alone. Residues, ends and D or L forms follow the SMILES beside them.

Key:
[1] = molecular target: T1, human peptide transporter PepT1 (Homo sapiens, UniProt P46059); test: Electrophysiological transport analysis, hPEPT1 expressed in oocytes; assay type: cell-based
T1 construct: expressed in transfected cells
T1 sequence (P46059 1-708): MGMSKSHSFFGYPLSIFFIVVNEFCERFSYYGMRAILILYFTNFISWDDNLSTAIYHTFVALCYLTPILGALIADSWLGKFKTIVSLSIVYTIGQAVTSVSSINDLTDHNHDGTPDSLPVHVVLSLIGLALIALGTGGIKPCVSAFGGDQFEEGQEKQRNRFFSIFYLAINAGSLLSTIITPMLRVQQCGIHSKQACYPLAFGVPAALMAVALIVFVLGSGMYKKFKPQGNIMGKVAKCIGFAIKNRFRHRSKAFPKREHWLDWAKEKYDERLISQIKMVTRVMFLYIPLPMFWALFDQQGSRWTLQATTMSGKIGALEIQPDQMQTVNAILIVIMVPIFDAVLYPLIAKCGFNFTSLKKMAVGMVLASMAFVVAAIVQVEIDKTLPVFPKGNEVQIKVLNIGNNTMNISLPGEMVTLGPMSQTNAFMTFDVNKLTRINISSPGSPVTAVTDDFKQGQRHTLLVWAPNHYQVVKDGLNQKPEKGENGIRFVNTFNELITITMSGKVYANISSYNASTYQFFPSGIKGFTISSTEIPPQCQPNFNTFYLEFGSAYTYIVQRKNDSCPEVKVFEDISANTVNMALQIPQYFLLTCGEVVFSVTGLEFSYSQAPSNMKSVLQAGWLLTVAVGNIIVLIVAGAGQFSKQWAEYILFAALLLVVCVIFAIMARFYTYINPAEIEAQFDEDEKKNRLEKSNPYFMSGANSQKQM

[2] = molecular target: T1, human peptide transporter PepT1; test: Affinity to PepT1 by displacement of radioactively labeled D-Phe-Ala; conditions: read-out: Binding constant, mM, to PepT1, relative to D-Phe-Ala
[3] = Blood glucose after oral glucose stimulation and oral administration (glucose tolerance); assay type: in vivo; conditions: Wistar rats; within 100 minutes of p.o. glucose stimulation; p.o. dose 2.5 um active substance/300 g of animal; control = 100
human blood-DP IV = molecular target: T2, human blood-DP IV (Homo sapiens, UniProt P27487); test: Inhibition of DP IV in human whole blood by release of Ile-Thia from prodrugs; conditions: same concentration of prodrug, compared with Pro-Ile-Thia and Gly-Pro-Ile-Thia
T2 construct: from tissue; host or cells: human whole blood
Excerpt: Release of the masked DP IV-inhibitor in the blood can be carried out, in the case of the examples selected, by DP IV itself (Pro-Pro-Ile-Thia=PPIThia, Gly-Pro-Ile-Thia=GPIThia) or by aminopeptidases (pGlu-Ile-Thia=pEIThia, Pro-Ile-Thia=PIThia) (FIG. 1).

T2 sequence (P27487 whole entry): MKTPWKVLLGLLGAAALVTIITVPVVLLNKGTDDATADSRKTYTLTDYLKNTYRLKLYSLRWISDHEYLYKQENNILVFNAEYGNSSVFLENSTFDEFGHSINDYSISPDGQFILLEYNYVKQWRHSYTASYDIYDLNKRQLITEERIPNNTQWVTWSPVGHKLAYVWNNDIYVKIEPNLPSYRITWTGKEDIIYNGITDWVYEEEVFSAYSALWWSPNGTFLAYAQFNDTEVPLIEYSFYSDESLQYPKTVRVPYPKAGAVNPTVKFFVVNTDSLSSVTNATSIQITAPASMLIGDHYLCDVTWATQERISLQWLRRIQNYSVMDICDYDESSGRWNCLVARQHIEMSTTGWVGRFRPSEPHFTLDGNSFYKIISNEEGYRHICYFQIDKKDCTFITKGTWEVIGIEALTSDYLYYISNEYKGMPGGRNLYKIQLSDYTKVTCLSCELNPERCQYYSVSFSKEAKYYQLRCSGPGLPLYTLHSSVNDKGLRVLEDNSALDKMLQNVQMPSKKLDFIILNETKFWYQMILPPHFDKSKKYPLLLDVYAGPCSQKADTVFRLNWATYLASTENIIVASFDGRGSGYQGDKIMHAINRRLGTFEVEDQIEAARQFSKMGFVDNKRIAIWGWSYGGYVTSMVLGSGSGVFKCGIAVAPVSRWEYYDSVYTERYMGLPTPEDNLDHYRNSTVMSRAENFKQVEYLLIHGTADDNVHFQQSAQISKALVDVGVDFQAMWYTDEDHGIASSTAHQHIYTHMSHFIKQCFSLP

Row | Compound | Electrophys. transport analysis (hPEPT1 expr. in oocytes), flux % based on the Gly-Gln control (100%) [1] | Ki [2] | also measured
1 | NCCCCC(N)C(=O)NC(Cc1ccccc1)C(=O)N1CCCC1C(=O)O (stereo not drawn) [Lys-Phe-Pro] (H-Lys-Phe-Pro-OH; configuration not given here) | 10% | 0.19 mM | –
2 | NC(=O)CC(N)C(=O)N1CCCC1 (stereo not shown) [Asn-Pyr] | 30% | 3.01 mM | –
3 | CC[C@H](C)[C@H](N)C(=O)N1CCC[C@H]1C(=O)N[C@H](C(=O)N1CCSC1)[C@@H](C)CC (as salt: HCl) [Ile-Pro-Ile-Thia] | – | – | melting point: 98 to 107 °C
4 | H-Pro-Ile-Thia/HC1 | – | – | % glucose level [3]: 56.1%
5 | pGlu-Ile-Thia | – | – | Release of the DP IV-inhibitor isoleucyl thiazolidide from the prodrug in the blood (time course of DP IV inhibition) (human blood-DP IV): more marked delay in the release of active substance
6 | Pro-Pro-Ile-Thia | – | – | Release of the DP IV-inhibitor isoleucyl thiazolidide from the prodrug in the blood (time course of DP IV inhibition) (human blood-DP IV): more marked delay in the release of active substance
7 | CC[C@H](C)[C@H](N)C(=O)N1CCC[C@H]1C(=O)N[C@H](C(=O)N1CCSC1)[C@@H](C)CC [Ile-Pro-Ile-Thia] | 44% | 0.61 mM | –
8 | NC(=O)CC(N)C(=O)N1CCSC1 (stereo not shown) [Asn-Thia] | 83% | 0.5 mM | –
9 | NC(Cc1c[nH]cn1)C(=O)N1CCCC1 (stereo not shown) [His-Pyr] | 7% | 5.34 mM | –
10 | CCC(C)C(N)C(=O)N1CCCC1 (stereo not shown) [Ile-Pyr] | 14% | 2.66 mM | –
11 | H-Gly-Pro-Ile-Thia/HC1 | – | – | % glucose level [3]: 57.1%
12 | CCC(C)C(N)C(=O)N1CCSC1 (stereo not shown) [Ile-Thia, isoleucyl thiazolidide] | 25% | 0.98 mM | % glucose level [3]: 74.4%
13 | NCCCCC(N)C(=O)NC(Cc1ccccc1)C(=O)O (stereo not shown) [Lys-phe] | 95% | 0.08 mM | –
